Measurements published in patent publication US7192746B2, “α-Isomaltosyltransferase, process for producing the same and use thereof” (Kabushiki Kaisha Hayashibara Seibutsu Kagaku Kenkyujo, priority 2000, dated 2007).
Where two headings read alike, the source gives them in different places.

Assays:
[1] = test system: Bifidobacterium adolescentis JCM 1275 strain; test: Assimilation test; assay type: cell-based; settings: PYF medium with 0.5% saccharide, 37° C., four days, anaerobic
[2] = Saturation concentration of cyclotetrasaccharide in water; assay type: physicochemical; settings: for Saturation concentration of cyclotetrasaccharide: water
Source text: The resulting each saturated solution of cyclotetrasaccharide was membrane filtered to remove undissolved cyclotetrasaccharide, and each filtrate was then examined for moisture content by the drying loss method and determined for a saturation concentration of cyclotetrasaccharide at respective temperatures.

pH stability = assay type: physicochemical; settings: 4% (w/v), 100° C., 24 hours; for Purity: HPLC
Description: Eight milliliters of each solution was placed in a glass test tube, followed by sealing the test tube and heating the solution at 100° C. for 24 hours. After cooling under atmospheric conditions, each solution was measured for coloration degree and determined for purity on HPLC. The coloration degree was evaluated based on the absorbance in a cell with a 1-cm light pass at a wavelength of 480 nm.

salivary amylase = biological target: T1, salivary amylase (Homo sapiens, UniProt P0DUB6)
T1 sequence (P0DUB6 16-511): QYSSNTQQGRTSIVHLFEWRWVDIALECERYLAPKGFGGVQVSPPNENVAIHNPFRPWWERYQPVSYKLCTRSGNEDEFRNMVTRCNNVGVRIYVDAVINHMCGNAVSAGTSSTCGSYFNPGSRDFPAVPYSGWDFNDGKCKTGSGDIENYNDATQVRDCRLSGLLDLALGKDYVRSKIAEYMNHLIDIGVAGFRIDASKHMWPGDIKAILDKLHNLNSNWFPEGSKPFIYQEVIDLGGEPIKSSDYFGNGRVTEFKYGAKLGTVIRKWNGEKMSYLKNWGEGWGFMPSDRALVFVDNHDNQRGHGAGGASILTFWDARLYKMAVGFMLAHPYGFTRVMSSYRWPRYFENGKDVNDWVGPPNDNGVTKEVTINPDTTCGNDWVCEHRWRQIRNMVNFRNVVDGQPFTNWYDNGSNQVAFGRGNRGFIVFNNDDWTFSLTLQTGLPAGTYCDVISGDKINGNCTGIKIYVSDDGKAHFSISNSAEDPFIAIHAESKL

amylopsin [3] = biological target: T2, amylopsin (Homo sapiens, UniProt P04746)
T2 sequence (P04746 16-511): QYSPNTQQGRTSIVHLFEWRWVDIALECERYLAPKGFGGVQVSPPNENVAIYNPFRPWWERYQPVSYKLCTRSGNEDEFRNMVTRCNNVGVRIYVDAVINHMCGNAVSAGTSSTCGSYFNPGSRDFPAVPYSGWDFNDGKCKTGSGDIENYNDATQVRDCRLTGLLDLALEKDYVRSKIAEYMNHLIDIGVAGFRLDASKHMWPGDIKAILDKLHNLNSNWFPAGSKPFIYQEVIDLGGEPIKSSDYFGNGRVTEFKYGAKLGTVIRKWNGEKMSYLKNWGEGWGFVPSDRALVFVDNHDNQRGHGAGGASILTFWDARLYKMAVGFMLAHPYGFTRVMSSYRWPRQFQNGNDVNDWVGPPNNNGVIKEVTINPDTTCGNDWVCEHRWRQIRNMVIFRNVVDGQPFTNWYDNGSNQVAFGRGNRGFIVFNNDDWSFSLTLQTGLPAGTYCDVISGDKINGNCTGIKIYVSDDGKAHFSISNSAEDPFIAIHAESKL

Inclusion action = assay type: physicochemical
Description: To 100 g of the aqueous solution was added 2 g of methanol, 3 g of ethanol, or 4.6 g of acetic acid to be included by the cyclotetrasaccharide. Thereafter, each of the resulting solutions was filtered to remove non-inclusion products, and the filtrate was lyophilized. As a control, similar inclusion products were prepared by using “ISOELITE™ P”, a branched cyclodextrin commercialized by Maruha K.K., Tokyo, Japan, known to have inclusion ability.
To measure the amount of the inclusion products in the resulting lyophilized powders, one gram of each powder was dissolved in five milliliters water and extracted after admixing with five milliliters of diethylether. The extraction was repeated, and the resulting extracts were pooled and quantified on gas chromatography.

[4] = test system: Clostridium perfringens JCM 3816 strain; assay type: cell-based; settings: PYF medium with 0.5% saccharide, 37° C., four days, anaerobic
[5] = test system: Eubacterium aerofaciens ATCC 25986 strain; test: Assimilation test; assay type: cell-based; settings: PYF medium with 0.5% saccharide, 37° C., four days, anaerobic
[6] = test system: Lactobacillus acidophilus JCM 1132 strain; test: Assimilation test; assay type: cell-based; settings: PYF medium with 0.5% saccharide, 37° C., four days, anaerobic
Thermostability = assay type: physicochemical; settings: 10% (w/v) aqueous solution, 120° C.; for Purity: HPLC
Description: After the heating, the aqueous solution was cooled under atmospheric conditions and measured for coloration degree and determined for purity on HPLC in Experiment 1. The coloration degree was evaluated based on the absorbance in a cell with a 1-cm light pass at a wavelength of 480 nm.

[7] = test system: small intestinal mucosal enzyme
[8] = test system: Bacteroides vulgatus JCM 5826 strain; test: Assimilation test; assay type: cell-based; settings: PYF medium with 0.5% saccharide, 37° C., four days, anaerobic
amylopsin [9] = biological target: T2, amylopsin; test: Digestion test in vitro

In the case of `OCC1OC2OCC3O[C@H](O[C@H]4C(O)C(CO)OC(OCC5O[C@H](O[C@@H](C1O)C2O)C(O)C(O)[C@@H]5O)C4O)C(O)C(O)[C@@H]3O` (stereo partly drawn) [Cyclotetrasaccharide, cyclo{→6)-α-D-glucopyranosyl-(1→3)-α-D-glucopyranosyl-(1→6)-α-D-glucopyranosyl-(1→3)-α-D-glucopyranosyl-(1→}], the Assimilability [1] is reported as “− (negative (−) when the post culture had a pH of 6.0 or higher)”, the “Weight of cyclotetrasaccharide dissolved in 100 g water” value (from here on “Weight … in 100 g water”) ([2]; 10° C.) is reported as 43.5 g and the “Weight … in 100 g water” value ([2]; 30° C.) is reported as 51.9 g. The “Weight … in 100 g water” value ([2]; 50° C.) was 74.2 g, the “Weight … in 100 g water” value ([2]; 70° C.) was 112.7 g and the “Weight … in 100 g water” value ([2]; 90° C.) was 239.0 g. The “Saturation concentration of cyclotetrasaccharide” value (from here on “Saturation concentration”) ([2]; 10° C.) was 30.3%, the “Saturation concentration” value ([2]; 30° C.) was 34.2% and the “Saturation concentration” value ([2]; 50° C.) was 42.6%. For the same compound, the “Saturation concentration” value ([2]; 70° C.) was 53.0%, the “Saturation concentration” value ([2]; 90° C.) was 70.5% and the “Coloration degree (A480 nm)” value (pH stability; pH 2.0 (Acetate buffer)) was 0.00. For the same compound, the Purity (pH stability; pH 2.0 (Acetate buffer)) was 93%, the “Coloration degree (A480 nm)” value (pH stability; pH 3.0 (Acetate buffer)) was 0.00 and the Purity (pH stability; pH 3.0 (Acetate buffer)) was 100%. For the same compound, the “Coloration degree (A480 nm)” value (pH stability; pH 4.0 (Acetate buffer)) was 0.00, the Purity (pH stability; pH 4.0 (Acetate buffer)) was 100% and the “Coloration degree (A480 nm)” value (pH stability; pH 5.0 (Acetate buffer)) was 0.00. The Purity (pH stability; pH 5.0 (Acetate buffer)) was 100%, the “Coloration degree (A480 nm)” value (pH stability; pH 6.0 (Tris-HCl buffer)) was 0.00 and the Purity (pH stability; pH 6.0 (Tris-HCl buffer)) was 100%. For the same compound, the “Coloration degree (A480 nm)” value (pH stability; pH 7.0 (Tris-HCl buffer)) was 0.00, the Purity (pH stability; pH 7.0 (Tris-HCl buffer)) was 100% and the “Coloration degree (A480 nm)” value (pH stability; pH 8.0 (Tris-HCl buffer)) was 0.00. The Purity (pH stability; pH 8.0 (Tris-HCl buffer)) was 100%, the “Coloration degree (A480 nm)” value (pH stability; pH 9.0 (Ammonium buffer)) was 0.00 and the Purity (pH stability; pH 9.0 (Ammonium buffer)) was 100%. For the same compound, the “Coloration degree (A480 nm)” value (pH stability; pH 10.0 (Ammonium buffer)) was 0.00, the Purity (pH stability; pH 10.0 (Ammonium buffer)) was 100% and the “Decomposition percentage by digestive enzyme” value (shortened to “Decomposition percentage”) (salivary amylase) was 0.0%. The “Decomposition percentage” value (amylopsin [3]) was 0.0%, the “Inclusion ability relative to the branched cyclodextrin, by weight” value (Inclusion action; higher than ISOELITE P) was “about 2 folds” and the Inclusion amount (Inclusion action; inclusion product Acetic acid) was 67.74 mg/g lyophilized powder. The Inclusion amount (Inclusion action; inclusion product Ethanol) was 17.26 mg/g lyophilized powder, the Inclusion amount (Inclusion action; inclusion product Methanol) was 6.71 mg/g lyophilized powder and the Assimilability [4] was “− (negative (−) when the post culture had a pH of 6.0 or higher)”. The Assimilability [5] was “− (negative (−) when the post culture had a pH of 6.0 or higher)”, the Assimilability [6] was “− (negative (−) when the post culture had a pH of 6.0 or higher)” and the “Coloration degree (A480 nm)” value (Thermostability; heating time 0 min) was 0.00. The Purity (Thermostability; heating time 0 min) was 100%, the “Coloration degree (A480 nm)” value (Thermostability; heating time 30 min) was 0.00 and the Purity (Thermostability; heating time 30 min) was 100%. The “Coloration degree (A480 nm)” value (Thermostability; heating time 60 min) was 0.00, the Purity (Thermostability; heating time 60 min) was 100% and the “Coloration degree (A480 nm)” value (Thermostability; heating time 90 min) was 0.00. For the same compound, the Purity (Thermostability; heating time 90 min) was 100%, the “Decomposition percentage” value [7] was 0.74% and the “Digestibility by intestinal mucosal enzyme relative to maltitol” value [7] was “⅕”. The Assimilability [8] was “− (negative (−) when the post culture had a pH of 6.0 or higher)”.

In the case of `OC[C@@H](O)[C@@H](O[C@H]1O[C@H](CO)[C@@H](O)[C@H](O)[C@H]1O)[C@H](O)[C@@H](O)CO` [Maltitol, maltitol], the “Decomposition percentage” value (amylopsin [9]) is reported as 0.0%.
